Source: paper PMC4038472, “Exploring the Potential of Flubendazole in Filariasis Control: Evaluation of the Systemic Exposure for Different Pharmaceutical Preparations” (PLoS Neglected Tropical Diseases, 2014)
Where two headings read alike, the source gives them in different places.

Columns and labels:
[1] = format: in vivo; conditions: for Time at which peak plasma concentrations were observed: range according to the experimental group and animal species (rats and jirds), FLBZ 5 mg/kg
Procedure: (§1) Jirds and rats were randomly allocated into four experimental groups (44 animals each). Experimental animals received the following treatments: FLBZ-CDoral, dosed orally (administered volume 0.25 and 1 mL for jirds and rats, respectively) in a CD-based solution (Cavasol); FLBZ-CDsc, dosed subcutaneously (sc) (injection volume of 0.25 and 1 mL for jirds and rats, respectively) in a CD-based solution (Cavitron); FLBZ-TWEEN, dosed sc (injection volume of 0.1 and 0.4 mL for jirds and rats, respectively) in a Tween-based formulation; and FLBZ-CMC, dosed orally (same volume as for FLBZ-CDoral) in a CMC-based suspension. The oral dose was administered using an intragastric tube. All treatments were given as a single dose of 5 mg/kg. The dose was selected because it is the dose previously reported in efficacy studies performed in the murine model. At defined time-points following treatment (5, 15 and 30 min, 1, 2, 3, 4, 6, 9, 12 and 16 h), blood samples were collected (n = 4 per time point) in heparinized plastic tubes. Plasma was separated by centrifugation at 2000× g for 15 min, placed into plastic tubes and frozen at −20°C until analysis by HPLC to quantify FLBZ, R-FLBZ and H-FLBZ plasma concentrations. After sc administration of the formulations, potential injection site reactions were evaluated by direct visual observation at the sampling time.
Chromatography was performed on a Shimadzu HPLC platform (Shimadzu Corporation, Kyoto, Japan), with two LC-10AS solvent pumps, an automatic sample injector (SIL-10A) with a 50 µL loop, an ultraviolet-visible spectrophotometric detector (UV) (SPD-10A) reading at 292 nm, a column oven (Eppendorf TC-45, Eppendorf, Madison, WI, USA) set at 30°C, and a CBM-10A integrator. Data and chromatograms were collected and analyzed using the Class LC10 software (SPD-10A, Shimadzu Corporation, Kyoto, Japan). The C18 reversed-phase column (5 µm, 250 mm×4.6 mm) was Kromasil (Kromasil®, Sweden). […]
Plasma samples (100 or 200 µL for jirds and rats, respectively) were spiked with OBZ as internal standard. […] Complete validation of the analytical procedures for extraction and quantification of drug and metabolites in plasma was performed before starting the analysis of experimental samples. […] The limit of quantification (FLBZ and metabolites was 0.01 µg/mL), defined as the lowest measured concentration with a CV <20%, accuracy of ±20% and absolute recovery ≥70%.
The peak concentration (Cmax) and time to peak concentration (Tmax) were read from the plotted concentration–time curve for each analyte. The area under the concentration–time curve from 0 up to the limit of quantification (AUC0-LOQ) for FLBZ and metabolites was calculated by the trapezoidal rule, using the PKSolutionTM computer program (Summit Research Services, Ashland, OR, USA). […]

[2] = mouse, in vivo; cited from earlier work
[3] = Plasma pharmacokinetics of FLBZ and metabolites after oral or sc FLBZ formulations in jirds; format: in vivo, jirds (Meriones unguiculatus)
Procedure: as §1, with “All treatments were given as a single dose of 5 mg/kg. The dose was selected because it is the dose previously reported in efficacy studies performed in the murine model. At defined time-points following treatment (5, 15 and 30 min, 1, 2, 3, 4, 6, 9, 12 and 16 h), blood samples were collected (n = 4 per time point) in heparinized plastic tubes.” left out
Chromatography was performed on a Shimadzu HPLC platform (Shimadzu Corporation, Kyoto, Japan), with two LC-10AS solvent pumps, an automatic sample injector (SIL-10A) with a 50 µL loop, an ultraviolet-visible spectrophotometric detector (UV) (SPD-10A) reading at 292 nm, a column oven (Eppendorf TC-45, Eppendorf, Madison, WI, USA) set at 30°C, and a CBM-10A integrator. […]

[4] = set-up: method as in earlier work; conditions: pigs after FLBZ treatment; cited from earlier work

Row | Compound | Time at which peak plasma concentrations were observed [1] [h] | Increase of systemic exposure compared to the conventional FLBZ suspension [2] | Plasma AUC, fold higher than conventional suspension [2] [fold] | Plasma Cmax, fold higher than conventional suspension [2] [fold] | H-FLBZ concentrations as share of the total amount of drug recovered in plasma ([3]; FLBZ-CD (oral or sc) or FLBZ-TWEEN, 5 mg/kg) | H-FLBZ as share of total drug measured in the bloodstream [4] [%] | R-FLBZ AUC0-LOQ as share of the total drug recovered from plasma ([3]; the different groups, FLBZ 5 mg/kg) | Amount of R-FLBZ metabolite present in the bloodstream ([1]; rat, in vivo) | R-FLBZ AUC0-LOQ as share of the total drug recovered from plasma ([1]; rat, in vivo, 5 mg/kg)
1 | COC(=O)Nc1nc2cc(C(=O)c3ccc(F)cc3)ccc2[nH]1 [FLBZ, flubendazole] | 0.7 to 3.2 | more than 25 fold | 27 | 28 |  |  |  |  | 
2 | Nc1nc2cc(C(=O)c3ccc(F)cc3)ccc2[nH]1 [H-FLBZ] | 3.0 to 5.2 |  |  |  | 10–20% | 97 |  |  | 
3 | COC(=O)Nc1nc2ccc(C(O)c3ccc(F)cc3)cc2[nH]1 (stereo not shown) [R-FLBZ] |  |  |  |  |  |  | about 10% | only trace amounts | about 10%
